Assay results published in ChEMBL document CHEMBL1201862, “PubChem BioAssay data set” (2004).
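Tested at 5 concentrations; 48 h exposure; 96-well plates; endpoints linearly interpolated, else capped at highest concentration. Here, GI50 denotes the concentration required for 50% inhibition of growth.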 The source made the active and inactive calls. Rule as the data show it: active = GI50 up to about 1.1 µM and inactive = higher.

How the values were obtained:
Assay in all cases: growth of human tumour cells (NCI), 48 h
MDA-MB-435 = test system: MDA-MB-435
OVCAR-4 = test system: OVCAR-4
PC-3 = test system: PC-3
SK-OV-3 = test system: SK-OV-3
SK-MEL-28 = test system: SK-MEL-28
BT-549 = test system: BT-549
MDA-N = test system: MDA-N
OVCAR-3 = test system: OVCAR-3
SNB-19 = test system: SNB-19
MCF7 = test system: MCF7
UACC-62 = test system: UACC-62
NCI-H23 = test system: NCI-H23
U-251 = test system: U-251
COLO 205 = test system: COLO 205
HCT-15 = test system: HCT-15
Hs-578T = test system: Hs-578T
SNB-75 = test system: SNB-75
UACC-257 = test system: UACC-257
IGROV-1 = test system: IGROV-1
HCT-116 = test system: HCT-116
RPMI-8226 = test system: RPMI-8226
ACHN = test system: ACHN
MDA-MB-231 = test system: MDA-MB-231
TK-10 = test system: TK-10
SF-539 = test system: SF-539
MOLT-4 = test system: MOLT-4
HOP-62 = test system: HOP-62
NCI-H226 = test system: NCI-H226
T47D = test system: T47D
SF-268 = test system: SF-268
CCRF-CEM = test system: CCRF-CEM
HT-29 = test system: HT-29
KM12 = test system: KM12
RXF 393 = test system: RXF 393
SW-620 = test system: SW-620
NCI/ADR-RES = test system: NCI/ADR-RES
OVCAR-8 = test system: OVCAR-8
OVCAR-5 = test system: OVCAR-5
HOP-92 = test system: HOP-92
Malme-3M = test system: Malme-3M
M14 = test system: M14
A549 = test system: A549
SR = test system: SR
SK-MEL-2 = test system: SK-MEL-2
SN12C = test system: SN12C
HCC 2998 = test system: HCC 2998
SF-295 = test system: SF-295
786-0 = test system: 786-0
LOX IMVI = test system: LOX IMVI
K562 = test system: K562
EKVX = test system: EKVX
CAKI-1 = test system: CAKI-1
DU-145 = test system: DU-145
NCI-H460 = test system: NCI-H460
A498 = test system: A498
NCI-H522 = test system: NCI-H522
HL-60 = test system: HL-60
SK-MEL-5 = test system: SK-MEL-5
UO-31 = test system: UO-31

## CCN(CC)CCC(=O)c1ccc(Oc2ccc(F)cc2)cc1
MDA-MB-435
  GI50: 17.5 µM (inactive)
OVCAR-4
  GI50: 39.4 µM (inactive)
PC-3
  GI50: 24 µM (inactive)
SK-OV-3
  GI50: > 100 µM (inactive)
SK-MEL-28
  GI50: 16.4 µM (inactive)
BT-549
  GI50: 18.3 µM (inactive)
MDA-N
  GI50: 18 µM (inactive)
OVCAR-3
  GI50: 17.1 µM (inactive)
SNB-19
  GI50: 18 µM (inactive)
MCF7
  GI50: 17.9 µM (inactive)
UACC-62
  GI50: 17.9 µM (inactive)
NCI-H23
  GI50: 20.6 µM (inactive)
U-251
  GI50: 17.1 µM (inactive)
COLO 205
  GI50: 19.2 µM (inactive)
HCT-15
  GI50: 18.2 µM
Hs-578T
  GI50: 24.2 µM (inactive)
SNB-75
  GI50: 26.7 µM (inactive)
UACC-257
  GI50: 17.8 µM (inactive)
IGROV-1
  GI50: 20.3 µM (inactive)
HCT-116
  GI50: 16.6 µM (inactive)
RPMI-8226
  GI50: 4.57 µM (inactive)
ACHN
  GI50: 18.4 µM (inactive)
MDA-MB-231
  GI50: 17.1 µM (inactive)
TK-10
  GI50: 17.5 µM (inactive)
SF-539
  GI50: 17.3 µM (inactive)
MOLT-4
  GI50: 20.2 µM (inactive)
HOP-62
  GI50: 22.3 µM (inactive)
NCI-H226
  GI50: > 100 µM (inactive)
T47D
  GI50: 20 µM (inactive)
SF-268
  GI50: 18.3 µM (inactive)
CCRF-CEM
  GI50: 20.6 µM (inactive)
HT-29
  GI50: 19.8 µM (inactive)
KM12
  GI50: 12.2 µM (inactive)
RXF 393
  GI50: 16.2 µM (inactive)
SW-620
  GI50: 18.4 µM (inactive)
NCI/ADR-RES
  GI50: 26.2 µM (inactive)
OVCAR-8
  GI50: 22.9 µM (inactive)
OVCAR-5
  GI50: 17.9 µM (inactive)
HOP-92
  GI50: 18.3 µM (inactive)
Malme-3M
  GI50: 18.5 µM (inactive)
M14
  GI50: 18.3 µM (inactive)
A549
  GI50: > 100 µM (inactive)
SR
  GI50: 12.5 µM (inactive)
SK-MEL-2
  GI50: 46.2 µM (inactive)
SN12C
  GI50: 18.2 µM (inactive)
HCC 2998
  GI50: 20 µM (inactive)
SF-295
  GI50: 39.4 µM (inactive)
786-0
  GI50: 14.8 µM (inactive)
LOX IMVI
  GI50: 15.4 µM (inactive)
K562
  GI50: 38.3 µM (inactive)
EKVX
  GI50: 20.6 µM (inactive)
CAKI-1
  GI50: 17.1 µM (inactive)
DU-145
  GI50: 23.8 µM (inactive)

## OC1(C(F)(F)F)OCCN=C1C(F)(F)F (stereo not given)
MDA-MB-435
  GI50: > 100 µM (inactive)
OVCAR-4
  GI50: > 100 µM (inactive)
PC-3
  GI50: > 100 µM (inactive)
SK-OV-3
  GI50: > 100 µM (inactive)
SK-MEL-28
  GI50: > 100 µM (inactive)
BT-549
  GI50: 56.2 µM (inactive)
MDA-N
  GI50: > 100 µM (inactive)
OVCAR-3
  GI50: 52 µM (inactive)
SNB-19
  GI50: > 100 µM (inactive)
MCF7
  GI50: > 100 µM (inactive)
UACC-62
  GI50: > 100 µM (inactive)
NCI-H23
  GI50: > 100 µM (inactive)
U-251
  GI50: > 100 µM (inactive)
COLO 205
  GI50: > 100 µM (inactive)
HCT-15
  GI50: 64.4 µM
Hs-578T
  GI50: 17.2 µM (inactive)
SNB-75
  GI50: > 100 µM (inactive)
UACC-257
  GI50: > 100 µM (inactive)
IGROV-1
  GI50: 99.3 µM (inactive)
HCT-116
  GI50: 51.5 µM (inactive)
NCI-H460
  GI50: > 100 µM (inactive)
RPMI-8226
  GI50: > 100 µM (inactive)
ACHN
  GI50: > 100 µM (inactive)
MDA-MB-231
  GI50: > 100 µM (inactive)
TK-10
  GI50: > 100 µM (inactive)
A498
  GI50: > 100 µM (inactive)
MOLT-4
  GI50: 69.8 µM (inactive)
HOP-62
  GI50: > 100 µM (inactive)
NCI-H522
  GI50: 40.4 µM (inactive)
NCI-H226
  GI50: > 100 µM (inactive)
T47D
  GI50: > 100 µM (inactive)
SF-268
  GI50: 53.8 µM (inactive)
HL-60
  GI50: 37.7 µM (inactive)
CCRF-CEM
  GI50: 46.8 µM (inactive)
HT-29
  GI50: > 100 µM (inactive)
KM12
  GI50: > 100 µM (inactive)
RXF 393
  GI50: > 100 µM (inactive)
SW-620
  GI50: 56.2 µM (inactive)
NCI/ADR-RES
  GI50: 88.3 µM (inactive)
OVCAR-8
  GI50: 53.5 µM (inactive)
OVCAR-5
  GI50: > 100 µM (inactive)
HOP-92
  GI50: 60.5 µM (inactive)
Malme-3M
  GI50: 24.8 µM (inactive)
M14
  GI50: > 100 µM (inactive)
SK-MEL-5
  GI50: 56.2 µM (inactive)
A549
  GI50: > 100 µM (inactive)
SK-MEL-2
  GI50: 31.5 µM (inactive)
SN12C
  GI50: 65.9 µM (inactive)
HCC 2998
  GI50: > 100 µM (inactive)
SF-295
  GI50: > 100 µM (inactive)
786-0
  GI50: > 100 µM (inactive)
LOX IMVI
  GI50: > 100 µM (inactive)
K562
  GI50: > 100 µM (inactive)
EKVX
  GI50: > 100 µM (inactive)
CAKI-1
  GI50: 52.2 µM (inactive)
DU-145
  GI50: 41.1 µM (inactive)
UO-31
  GI50: > 100 µM (inactive)

## O=C(OCc1ccccc1[N+](=O)[O-])N1c2ccccc2[C@@]23O[C@]24CCC[C@H]3C#C/C=C\C#C[C@H]14
MDA-MB-435
  GI50: > 100 µM (inactive)
OVCAR-4
  GI50: > 100 µM (inactive)
PC-3
  GI50: 14.8 µM (inactive)
SK-OV-3
  GI50: > 100 µM (inactive)
SK-MEL-28
  GI50: 44.1 µM (inactive)
BT-549
  GI50: 49.5 µM (inactive)
MDA-N
  GI50: > 100 µM (inactive)
OVCAR-3
  GI50: > 100 µM (inactive)
SNB-19
  GI50: > 100 µM (inactive)
MCF7
  GI50: 0.875 µM (active)
UACC-62
  GI50: 22.7 µM (inactive)
NCI-H23
  GI50: 18.7 µM (inactive)
U-251
  GI50: 11 µM (inactive)
COLO 205
  GI50: 67.3 µM (inactive)
HCT-15
  GI50: 17 µM
Hs-578T
  GI50: 66.5 µM (inactive)
UACC-257
  GI50: > 100 µM (inactive)
IGROV-1
  GI50: > 100 µM (inactive)
HCT-116
  GI50: 41.5 µM (inactive)
NCI-H460
  GI50: 0.362 µM (active)
ACHN
  GI50: 12.8 µM (inactive)
MDA-MB-231
  GI50: > 100 µM (inactive)
TK-10
  GI50: > 100 µM (inactive)
SF-539
  GI50: 9.95 µM (inactive)
A498
  GI50: > 100 µM (inactive)
MOLT-4
  GI50: 1.46 µM (inactive)
NCI-H522
  GI50: 78 µM (inactive)
NCI-H226
  GI50: > 100 µM (inactive)
T47D
  GI50: 73.8 µM (inactive)
SF-268
  GI50: 75 µM (inactive)
HL-60
  GI50: 2.5 µM (inactive)
CCRF-CEM
  GI50: 4.21 µM (inactive)
HT-29
  GI50: 38.1 µM (inactive)
KM12
  GI50: > 100 µM (inactive)
RXF 393
  GI50: > 100 µM (inactive)
SW-620
  GI50: 9.16 µM (inactive)
NCI/ADR-RES
  GI50: 31.3 µM (inactive)
OVCAR-8
  GI50: 49 µM (inactive)
OVCAR-5
  GI50: 66.7 µM (inactive)
HOP-92
  GI50: 25.6 µM (inactive)
Malme-3M
  GI50: 8.38 µM (inactive)
M14
  GI50: > 100 µM (inactive)
SK-MEL-5
  GI50: 12.4 µM (inactive)
A549
  GI50: 4.02 µM (inactive)
SK-MEL-2
  GI50: > 100 µM (inactive)
SN12C
  GI50: 13.7 µM (inactive)
HCC 2998
  GI50: 41.3 µM (inactive)
SF-295
  GI50: 7.01 µM (inactive)
786-0
  GI50: 15.7 µM (inactive)
LOX IMVI
  GI50: 6.73 µM (inactive)
K562
  GI50: 5.83 µM (inactive)
EKVX
  GI50: > 100 µM (inactive)
CAKI-1
  GI50: 7.36 µM (inactive)
DU-145
  GI50: > 100 µM (inactive)
UO-31
  GI50: 21 µM (inactive)
